Legend:
[1] = test system: rat; experiment: Chronic oral administration for 52 weeks, gastric damage; format: in vivo
[2] = target: T1, H2 receptors (Cavia porcellus, UniProt P47747); experiment: Isolated atrium, histamine stimulation; conditions: guinea-pig atrium, fig. 5
T1 construct: using an organ in which only H2 receptors were present (guinea-pig atrium); from tissue; host or cells: guinea-pig atrium
Excerpt: On the basis of the above series of observations, we decided to study the pharmacological behaviour of a number of widely used NSAIDs (including amtolmetin guacyl) towards the gastric mucosa in the rat, as previously described. […] The first hypothesis was that we were deling with an anti-H2 drug, given the fact that its potency could be compared with that of cimetidine.

T1 sequence (P47747 whole entry): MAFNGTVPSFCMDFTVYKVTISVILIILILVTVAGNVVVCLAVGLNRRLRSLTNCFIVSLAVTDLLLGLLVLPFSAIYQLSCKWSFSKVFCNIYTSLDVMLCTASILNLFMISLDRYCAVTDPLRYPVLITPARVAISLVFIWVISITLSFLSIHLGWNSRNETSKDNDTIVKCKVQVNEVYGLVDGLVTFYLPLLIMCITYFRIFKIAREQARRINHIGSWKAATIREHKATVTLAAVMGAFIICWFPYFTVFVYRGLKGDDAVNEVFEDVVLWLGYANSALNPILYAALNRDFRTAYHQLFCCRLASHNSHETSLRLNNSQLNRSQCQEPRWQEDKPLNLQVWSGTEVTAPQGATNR

COc1ccccc1OC(=O)CNC(=O)Cc1ccc(C(=O)c2ccc(C)cc2)n1C [MED 15, 2-methoxyphenyl-1-methyl-5p-methylbenzoylpyrrol-2-acetamido acetate]
gastric damage [1]: absence of gastric damage | interference with the H2 receptors [2]: did not interfere with the H2 receptors
